Experimental data taken from patent US20130178441A1, “Methods for Extending Progression-Free Survival using 10-Propargyl-10-Deazaaminopterin” (ALLOS THERAPEUTICS, INC., priority 2010, published 2013).
“And” between values parts separate entries of the source, which are not always exact repeats. Identical values can stand only once. “Also recorded” adds a separate entry of the source. Marks after values point to notes of the source that are not given here.

Columns and labels:
[1] = test system: relapsed or refractory PTCL; experiment: Progressive resistance analysis: PFS and response rate on pralatrexate vs previous lines of therapy (PDX-008, patients as their own control); assay type: in vivo, human; details: for Progression-free Survival Median: Kaplan-Meier
Procedure: Analysis of progressive resistance. The treatment immediately prior to entry into clinical trial PDX-008 provides data from a heterogeneous control group reflecting clinical practice with which to compare the efficacy of pralatrexate. This dataset has the benefit of being from the same patients as those receiving pralatrexate, and so avoids inter-subject variation.
Methodology: In order to explore this progressive resistance concept, retrospective analyses were performed looking at patients' response and PFS to prior therapies using patients as their own control. It was hypothesized that the response rates and PFS would be lower with each subsequent line of therapy (hypothesis #1). Analyses were conducted on those patients who received at least 3 prior therapies. PFS and response rate of third prior therapy (−3) were compared with those of the second prior therapy (−2), PFS and response rate of second prior therapy (−2) were compared with those last line of therapy (−1) prior to pralatrexate, and PFS and response rate of last line of therapy (−1) were compared with pralatrexate therapy for these patients. These analyses utilized investigator assessment of PFS, and response since central review of tumor assessments on prior therapies was not available.
Therefore, an analysis was conducted on all patients comparing PFS and response rate of last line of therapy with those of pralatrexate therapy.
For examining hypothesis #1, there were 57 patients (−3) who had undergone at least 3 prior therapies before entry into PDX-008. […] Examination of the pattern beyond 3 previous treatments would be progressively uninformative as fewer and fewer patients would be entered into the analysis. 1. See also FIG. 2.
There were 86 patients who had undergone at least 2 prior therapies before entry into PDX-008. This cohort included the 57 patients who received 3 or more previous treatments and 29 additional patients who received exactly 2 treatments prior to treatment with pralatrexate.
For examining hypothesis #2, PFS and response rate were compared following pralatrexate treatment with the treatment immediately prior to study entry for all 109 PTCL patients evaluated for efficacy in PDX-008. This cohort included the 86 patients who received 2 or more previous treatments and 23 patients who received only 1 treatment prior to pralatrexate.
Overview of Calculations: Time to progression of disease (PD) was calculated from the start date of the prior therapy administered to the date of progression+1 day.
PFS time was calculated as the number of days from start of prior treatment to the date of PD (date of PD−start date of prior treatment+1).
PFS time was calculated as the number of days from start of treatment to the date of PD or death, regardless of cause (date of PD or death−start date of pralatrexate treatment+1).
In addition, the PFS hazard ratio (HR), along with 95% confidence intervals (CIs), were estimated via the Cox regression model.
To assess the objective response rate (ORR) and PFS with each subsequent line of therapy and the effect of pralatrexate on ORR and PFS: In the first population group (n=57), i.e., group including patients with ≧3 prior systemic therapies, PFS and ORR of the third therapy prior to pralatrexate (−3) were compared with those of the second prior therapy (−2) to pralatrexate; PFS and ORR of the second prior therapy (2) were compared with those of the most recent line of therapy (−1) prior to pralatrexate; and PFS and ORR of the most recent line of therapy (−1) were compared with pralatrexate therapy for these patients.
In the second population group (n=86), i.e., group including patients with ≧2 prior systemic therapies, PFS and ORR of the second prior therapy (2) were compared with those of the most recent line of therapy (−1) prior to pralatrexate; and PFS and ORR of the most recent therapy (−1) were compared with pralatrexate therapy for these patients.

[2] = test system: relapsed/refractory PTCL; experiment: PROPEL subset analysis: second-line pralatrexate after first-line CHOP only (N=15) vs other patients (n=94); assay type: in vivo, human
Procedure: The most common therapy for first-line treatment of PTCL is the multi-agent combination cyclophosphamide/doxorubicin/vincristine prednisone (CHOP). However, most patients progress within 6-12 months, and there is no standard of care for second-line treatment of these patients. Thus optimal second-line approaches are needed and agents based on a unique mechanism of action warrant study. This analysis was conducted to determine if pralatrexate offered a beneficial second-line treatment option. […] All patients in the PROPEL study had received at least 1 prior therapy for PTCL. […] The efficacy in these patients was compared with the remainder of the patient population who had not received CHOP as their only therapy for PTCL prior to pralatrexate (n=94).

[3] = all patients (≧1 prior therapy), N=109, investigator assessment
[4] = patients with ≧2 previous treatments, N=86, investigator assessment
[5] = patients with ≧3 previous treatments, N=57, investigator assessment
[6] = 15 patients with CHOP as only prior therapy
[7] = individual responders after first-line CHOP, central review, most values censored
[8] = other patients in the study (n=94)
[9] = second-line after CHOP, N=15, central review
[10] = second-line after CHOP, N=15, investigator
[11] = second-line after CHOP, N=15, investigator, Kaplan-Meier
[12] = second-line after CHOP, N=15, investigator, Kaplan-Meier, listed as pralatrexate

C#CCC(Cc1cnc2nc(N)nc(N)c2n1)c1ccc(C(=O)N[C@@H](CCC(=O)O)C(=O)O)cc1 (mixture of isomers) [Pralatrexate, (2S)-2-[[4-[(1RS)-1-[(2,4-diaminopteridin-6-yl)methyl]but-3-ynyl]benzoyl]amino]pentanedioic acid]
Response Rate [1, 3]: 39% | Progression-free Survival Median [1, 3]: 121.00 days | PFS Hazard Ratio, −1 vs pralatrexate ([1]; all patients, N=109, Cox regression, 95% CI): 1.051 | Response Rate (ORR) [1, 4]: 40% | Progression-free Survival Median [1, 4]: 119.00 days | Progression-free Survival Median ([1]; patients with ≧2 previous treatments, N=86, investigator assessment, listed as pralatrexate): 119 days | Trend of decreased ORR and PFS with successive lines of therapy ([1]; patients with ≧3 or ≧2 previous treatments): reversed | Response Rate (ORR) [1, 5]: 40% | Progression-free Survival Median [1, 5]: 134.00 days | Progression-free Survival Median ([1]; patients with ≧3 previous treatments, N=57, investigator assessment, listed as pralatrexate): 134 days | CR/CRu by investigators assessment [2, 6]: 33% | Complete responses [CR] by independent central review [2, 6]: 20% | ORR by investigator assessment [2, 6]: 40% | Overall response rate (ORR) by independent central review [2, 6]: 47% | Duration of Response ([2]; individual responder after first-line CHOP, central review, censored (initiation of other subsequent therapy)): 1 day^a | Duration of Response (months) [2, 7]: 10.1^a months and 9.7^b months and 8.3^b months and 6.5^a months and 3.3^c months and 2.3^c months | PFS (months) [2, 7]: 14.8^a months and 17.8^b months and 15.5^b months and 8.1 months and 4.6^c months and 3.4^c months and 4.6^a months | Duration of Response (months) ([2]; individual responders after first-line CHOP, central review, most values censored, listed as pralatrexate): 2.3 months and 3.3 months | Patients still alive at the time of last contact ([2]; of the 15 patients): 73% | Patients who proceeded to a stem cell transplant upon attaining a response to pralatrexate ([2]; of the 15 patients treated only with CHOP): Two | CR/CRu by investigators assessment ([2]; other patients (n=94)): 16% | Median PFS according to central review ([2]; other patients (n=94)): 3.1 months | Median PFS per investigator assessment ([2]; other patients (n=94)): 3.5 months | Median duration of response per investigator assessment ([2]; other patients (n=94)): 6.7 months | ORR by investigators assessment ([2]; other patients (n=94)): 39% | CR/CRu by independent central review [2, 8]: 10% | ORR by independent central review [2, 8]: 27% | 12-month OS estimate ([2]; second-line after CHOP, N=15): 73% | OS, Median, months (95% CI) ([2]; second-line after CHOP, N=15, NE = not able to estimate): not able to be estimated | PFS, Range [2, 9]: 0.7-17.8^c months | Tumor Response: CRu [2, 9]: 0 (0) n (%) | Tumor Response: Not evaluable [2, 9]: 0 (0) n (%) | Tumor Response: ORR (CR + CRu + PR) [2, 9]: 7 (47) n (%) | Tumor response: CR [2, 9]: 3 (20) n (%) | Tumor response: PD [2, 9]: 4 (27) n (%) | Tumor response: PR [2, 9]: 4 (27) n (%) | Tumor response: SD [2, 9]: 4 (27) n (%) | PFS, Median, months (95% CI) ([2]; second-line after CHOP, N=15, central review, Kaplan-Meier): 8.1 (4.6, NE) months | PFS, Median, months (95% CI) ([2]; second-line after CHOP, N=15, central review, Kaplan-Meier, listed as pralatrexate): 8.1 months | Duration of response, Median, months (95% CI) ([2]; second-line after CHOP, N=15, central review, NE = not able to estimate, insufficient PD events): not reached; also recorded: not yet estimable | Tumor Response: CRu [2, 10]: 1 (7) n (%) | Tumor Response: Not evaluable [2, 10]: 1 (7)^a n (%) | Tumor Response: ORR (CR + CRu + PR) [2, 10]: 6 (40) n (%) | Tumor response: CR [2, 10]: 4 (27) n (%) | Tumor response: PD [2, 10]: 4 (27) n (%) | Tumor response: PR [2, 10]: 1 (7) n (%) | Tumor response: SD [2, 10]: 4 (27) n (%) | Duration of response, Median, months (95% CI) [2, 11]: 12.5 (10.8, NE) months | PFS, Median, months (95% CI) [2, 11]: 7.4 (2.3, 15.0) months | Duration of response, Median, months (95% CI) [2, 12]: 12.5 months | PFS, Median, months (95% CI) [2, 12]: 7.4 months | OS, Range ([2]; second-line after CHOP, N=15, survival follow-up ended at 2 years): 1.5-24.0^d months | Current disease-free period (duration of response to pralatrexate + time since stem cell transplant) ([2]; the 2 patients who proceeded to stem cell transplant): 20.9 months and 27.2 months and 20.1 months and 21.7 months
